Test [1] addresses T1, Ribonuclease A (RNase A) (Bos taurus, UniProt P61823).
T1 construct: gene RNASE1
T1 sequence (P61823 27-150): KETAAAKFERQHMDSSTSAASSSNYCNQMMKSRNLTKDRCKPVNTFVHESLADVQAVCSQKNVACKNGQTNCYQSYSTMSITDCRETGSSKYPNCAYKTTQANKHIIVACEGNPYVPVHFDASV
The test can be described thus: direct […]{1H} NMR titration (binding constant Ka). The note with it: read-out: direct 31P{1H} NMR titration (binding constant Ka) (converted).

For test [2], the target named is T1, Ribonuclease A (RNase A). The experiment in a line: X-ray cocrystal structure; RNase A inhibition assay (Ki). It is filed as biochemical.
Test [3] deals with T1, Ribonuclease A (RNase A). The test can be described thus: X-ray cocrystal structure (soaking); FRET inhibition assay (Ki); […] NMR titration. It is filed as biochemical.
Test [4] has as its target T1, Ribonuclease A (RNase A). The experiment in a line: […]{1H} NMR competition titration with RNase A·p3A (binding constant Ka). The conditions noted are these: read-out: 31P{1H} NMR competition titration with RNase A.p3A (binding constant Ka) (converted).

The results in this text go back to publication PMC11273453, “Pentaphosphorylation via the Anhydride of Dihydrogen Pentametaphosphate: Access to Nucleoside Hexa- and Heptaphosphates and Study of Their Interaction with Ribonuclease A” (ACS Central Science, 2024).

SMILES strings stand for the structures.

For the compound `O=P1(O)OP(=O)(O)OP(=O)(O)OP(=O)(O)O1` [cP4i, tetrametaphosphate], the Kd in test [1] is 23500 nM.

A word on the Ki: it is the equilibrium dissociation constant of an inhibitor or competing ligand from its target. A low value points to a stronger hold on the target. For the compound `Nc1ncnc2c1ncn2[C@@H]1O[C@H](COP(=O)(O)OP(=O)(O)OP(=O)(O)OP(=O)(O)OP(=O)(O)OP(=O)(O)O)[C@@H](O)[C@H]1O` [p6A], in test [2], the affinity corresponds to a Ki of 3600 ± 600 nM.

On to `O=c1ccn([C@@H]2O[C@H](COP(=O)(O)OP(=O)(O)OP(=O)(O)OP(=O)(O)OP(=O)(O)OP(=O)(O)O)[C@@H](O)[C@H]2O)c(=O)[nH]1` [p6U], for which the affinity in test [3], expressed as Ki, was 1100 ± 200 nM.

Compound `O=c1ccn([C@H]2O[C@@H](COP(=O)(O)OP(=O)(O)OP(=O)(O)OP(=O)(O)OP(=O)(O)OP(=O)(O)OP(=O)(O)O)[C@@H](O)[C@H]2O)c(=O)[nH]1` [p7U] yielded a Ki in test [3] of 1000 ± 200 nM.

Turning to `O=c1ccn([C@@H]2O[C@H](COP(=O)(O)OP(=O)(O)OP(=O)(O)OP(=O)(O)OP(=O)(O)O)[C@@H](O)[C@H]2O)c(=O)[nH]1` [p5U], in test [4], the Kd is 53.8 nM.

In test [2], `Nc1ncnc2c1ncn2[C@@H]1O[C@H](COP(=O)(O)OP(=O)(O)OP(=O)(O)OP(=O)(O)OP(=O)(O)OP(=O)(O)OP(=O)(O)O)[C@@H](O)[C@H]1O` [p7A] came in with a Ki of 2600 ± 400 nM.
